{"source": "patent US11304919B2", "about": "“Utilization of cilastatin in inhibiting renal disorder” (NIIGATA UNIVERSITY, priority 2018, dated 2022)", "key": {"megalin [1]": {"tested_on": "megalin", "experiment": "Contrast nephropathy model in kidney-specific megalin partial knockout mice (apoE-Cre), megalin/KIM-1 immunostaining (Reference Example 3)", "assay_type": "in vivo, mouse", "settings": "200 μL iomeprol, 48 h after administration, FIGS. 10A-10C", "protocol": "Similar murine models of contrast nephropathy to those of Reference Example 1 were constructed using kidney-specific megalin partial knockout mice (apoE-Cre), and were used to verify the involvement of megalin in the onset of contrast-induced renal injuries.\nLeft kidneys were extracted from the apoE-Cre knockout mice, and 14 days later, right kidney pedicles were ligated for 30 minutes. Thereafter, reperfusion was carried out. After 24 hours from the start of reperfusion, 200 μL of iomeprol or normal saline was administered from the tail vein.\nThe stained slices were mounted with Slow Fade Gold Antifade Reagent (Life Technologies) and observed using a fluorescence microscopy (BZ-9000, Keyence). In particular, it was verified whether megalin and KIM-1 were expressed in the S1 and S2 segments of renal proximal tubules."}, "C57BL/6J mice": {"tested_on": "C57BL/6J mice", "experiment": "Murine model of contrast nephropathy (Reference Example 1)", "assay_type": "in vivo, mouse", "protocol": "Murine models of contrast nephropathy were constructed.\nLeft kidneys were extracted from C57BL/6J mice (male, aged 9-12 weeks, Charles River Laboratories International), and 14 days later, right kidney pedicles were ligated for 30 minutes. Thereafter, reperfusion was carried out. For the iomeprol-treated group, 200 μL of iomeprol was administered from the tail vein after 24 hours from the start of reperfusion. For the control group, 200 μL of normal saline instead of iomeprol was administered from the tail vein. After 48 hours from the administration, the animals in both groups were euthanized and evaluated.\nFor 24 hours before euthanization, urine samples were collected using a metabolic cage. […] The collected blood samples were centrifuged for 30 minutes at 800 g at room temperature to separate and collect the serum. The obtained urine and serum samples were stored at −80° C. until analysis.\nFor biochemical evaluation of renal injuries, serum creatinine (Cr) and urea nitrogen (MN) levels, and urinary Cr and β-D-N-acetylglucosaminidase (NAG) were measured. Serum MN and Cr measurements were contracted to Oriental Yeast Co., Ltd., and urinary NAG and Cr measurements were to SRL, Inc.\nThe obtained thin slices were stained with periodic acid-Shiff (PAS) and immunostained with the renal injury marker Kidney Injury Molecule-1 (KIM-1). The immunostaining was performed using VECTASTAIN Elite ABC Kit (Vector Laboratories, Inc.)."}, "megalin [2]": {"molecular_target": "megalin (Rattus norvegicus, UniProt P98158)", "sequence (P98158 26-4660)": "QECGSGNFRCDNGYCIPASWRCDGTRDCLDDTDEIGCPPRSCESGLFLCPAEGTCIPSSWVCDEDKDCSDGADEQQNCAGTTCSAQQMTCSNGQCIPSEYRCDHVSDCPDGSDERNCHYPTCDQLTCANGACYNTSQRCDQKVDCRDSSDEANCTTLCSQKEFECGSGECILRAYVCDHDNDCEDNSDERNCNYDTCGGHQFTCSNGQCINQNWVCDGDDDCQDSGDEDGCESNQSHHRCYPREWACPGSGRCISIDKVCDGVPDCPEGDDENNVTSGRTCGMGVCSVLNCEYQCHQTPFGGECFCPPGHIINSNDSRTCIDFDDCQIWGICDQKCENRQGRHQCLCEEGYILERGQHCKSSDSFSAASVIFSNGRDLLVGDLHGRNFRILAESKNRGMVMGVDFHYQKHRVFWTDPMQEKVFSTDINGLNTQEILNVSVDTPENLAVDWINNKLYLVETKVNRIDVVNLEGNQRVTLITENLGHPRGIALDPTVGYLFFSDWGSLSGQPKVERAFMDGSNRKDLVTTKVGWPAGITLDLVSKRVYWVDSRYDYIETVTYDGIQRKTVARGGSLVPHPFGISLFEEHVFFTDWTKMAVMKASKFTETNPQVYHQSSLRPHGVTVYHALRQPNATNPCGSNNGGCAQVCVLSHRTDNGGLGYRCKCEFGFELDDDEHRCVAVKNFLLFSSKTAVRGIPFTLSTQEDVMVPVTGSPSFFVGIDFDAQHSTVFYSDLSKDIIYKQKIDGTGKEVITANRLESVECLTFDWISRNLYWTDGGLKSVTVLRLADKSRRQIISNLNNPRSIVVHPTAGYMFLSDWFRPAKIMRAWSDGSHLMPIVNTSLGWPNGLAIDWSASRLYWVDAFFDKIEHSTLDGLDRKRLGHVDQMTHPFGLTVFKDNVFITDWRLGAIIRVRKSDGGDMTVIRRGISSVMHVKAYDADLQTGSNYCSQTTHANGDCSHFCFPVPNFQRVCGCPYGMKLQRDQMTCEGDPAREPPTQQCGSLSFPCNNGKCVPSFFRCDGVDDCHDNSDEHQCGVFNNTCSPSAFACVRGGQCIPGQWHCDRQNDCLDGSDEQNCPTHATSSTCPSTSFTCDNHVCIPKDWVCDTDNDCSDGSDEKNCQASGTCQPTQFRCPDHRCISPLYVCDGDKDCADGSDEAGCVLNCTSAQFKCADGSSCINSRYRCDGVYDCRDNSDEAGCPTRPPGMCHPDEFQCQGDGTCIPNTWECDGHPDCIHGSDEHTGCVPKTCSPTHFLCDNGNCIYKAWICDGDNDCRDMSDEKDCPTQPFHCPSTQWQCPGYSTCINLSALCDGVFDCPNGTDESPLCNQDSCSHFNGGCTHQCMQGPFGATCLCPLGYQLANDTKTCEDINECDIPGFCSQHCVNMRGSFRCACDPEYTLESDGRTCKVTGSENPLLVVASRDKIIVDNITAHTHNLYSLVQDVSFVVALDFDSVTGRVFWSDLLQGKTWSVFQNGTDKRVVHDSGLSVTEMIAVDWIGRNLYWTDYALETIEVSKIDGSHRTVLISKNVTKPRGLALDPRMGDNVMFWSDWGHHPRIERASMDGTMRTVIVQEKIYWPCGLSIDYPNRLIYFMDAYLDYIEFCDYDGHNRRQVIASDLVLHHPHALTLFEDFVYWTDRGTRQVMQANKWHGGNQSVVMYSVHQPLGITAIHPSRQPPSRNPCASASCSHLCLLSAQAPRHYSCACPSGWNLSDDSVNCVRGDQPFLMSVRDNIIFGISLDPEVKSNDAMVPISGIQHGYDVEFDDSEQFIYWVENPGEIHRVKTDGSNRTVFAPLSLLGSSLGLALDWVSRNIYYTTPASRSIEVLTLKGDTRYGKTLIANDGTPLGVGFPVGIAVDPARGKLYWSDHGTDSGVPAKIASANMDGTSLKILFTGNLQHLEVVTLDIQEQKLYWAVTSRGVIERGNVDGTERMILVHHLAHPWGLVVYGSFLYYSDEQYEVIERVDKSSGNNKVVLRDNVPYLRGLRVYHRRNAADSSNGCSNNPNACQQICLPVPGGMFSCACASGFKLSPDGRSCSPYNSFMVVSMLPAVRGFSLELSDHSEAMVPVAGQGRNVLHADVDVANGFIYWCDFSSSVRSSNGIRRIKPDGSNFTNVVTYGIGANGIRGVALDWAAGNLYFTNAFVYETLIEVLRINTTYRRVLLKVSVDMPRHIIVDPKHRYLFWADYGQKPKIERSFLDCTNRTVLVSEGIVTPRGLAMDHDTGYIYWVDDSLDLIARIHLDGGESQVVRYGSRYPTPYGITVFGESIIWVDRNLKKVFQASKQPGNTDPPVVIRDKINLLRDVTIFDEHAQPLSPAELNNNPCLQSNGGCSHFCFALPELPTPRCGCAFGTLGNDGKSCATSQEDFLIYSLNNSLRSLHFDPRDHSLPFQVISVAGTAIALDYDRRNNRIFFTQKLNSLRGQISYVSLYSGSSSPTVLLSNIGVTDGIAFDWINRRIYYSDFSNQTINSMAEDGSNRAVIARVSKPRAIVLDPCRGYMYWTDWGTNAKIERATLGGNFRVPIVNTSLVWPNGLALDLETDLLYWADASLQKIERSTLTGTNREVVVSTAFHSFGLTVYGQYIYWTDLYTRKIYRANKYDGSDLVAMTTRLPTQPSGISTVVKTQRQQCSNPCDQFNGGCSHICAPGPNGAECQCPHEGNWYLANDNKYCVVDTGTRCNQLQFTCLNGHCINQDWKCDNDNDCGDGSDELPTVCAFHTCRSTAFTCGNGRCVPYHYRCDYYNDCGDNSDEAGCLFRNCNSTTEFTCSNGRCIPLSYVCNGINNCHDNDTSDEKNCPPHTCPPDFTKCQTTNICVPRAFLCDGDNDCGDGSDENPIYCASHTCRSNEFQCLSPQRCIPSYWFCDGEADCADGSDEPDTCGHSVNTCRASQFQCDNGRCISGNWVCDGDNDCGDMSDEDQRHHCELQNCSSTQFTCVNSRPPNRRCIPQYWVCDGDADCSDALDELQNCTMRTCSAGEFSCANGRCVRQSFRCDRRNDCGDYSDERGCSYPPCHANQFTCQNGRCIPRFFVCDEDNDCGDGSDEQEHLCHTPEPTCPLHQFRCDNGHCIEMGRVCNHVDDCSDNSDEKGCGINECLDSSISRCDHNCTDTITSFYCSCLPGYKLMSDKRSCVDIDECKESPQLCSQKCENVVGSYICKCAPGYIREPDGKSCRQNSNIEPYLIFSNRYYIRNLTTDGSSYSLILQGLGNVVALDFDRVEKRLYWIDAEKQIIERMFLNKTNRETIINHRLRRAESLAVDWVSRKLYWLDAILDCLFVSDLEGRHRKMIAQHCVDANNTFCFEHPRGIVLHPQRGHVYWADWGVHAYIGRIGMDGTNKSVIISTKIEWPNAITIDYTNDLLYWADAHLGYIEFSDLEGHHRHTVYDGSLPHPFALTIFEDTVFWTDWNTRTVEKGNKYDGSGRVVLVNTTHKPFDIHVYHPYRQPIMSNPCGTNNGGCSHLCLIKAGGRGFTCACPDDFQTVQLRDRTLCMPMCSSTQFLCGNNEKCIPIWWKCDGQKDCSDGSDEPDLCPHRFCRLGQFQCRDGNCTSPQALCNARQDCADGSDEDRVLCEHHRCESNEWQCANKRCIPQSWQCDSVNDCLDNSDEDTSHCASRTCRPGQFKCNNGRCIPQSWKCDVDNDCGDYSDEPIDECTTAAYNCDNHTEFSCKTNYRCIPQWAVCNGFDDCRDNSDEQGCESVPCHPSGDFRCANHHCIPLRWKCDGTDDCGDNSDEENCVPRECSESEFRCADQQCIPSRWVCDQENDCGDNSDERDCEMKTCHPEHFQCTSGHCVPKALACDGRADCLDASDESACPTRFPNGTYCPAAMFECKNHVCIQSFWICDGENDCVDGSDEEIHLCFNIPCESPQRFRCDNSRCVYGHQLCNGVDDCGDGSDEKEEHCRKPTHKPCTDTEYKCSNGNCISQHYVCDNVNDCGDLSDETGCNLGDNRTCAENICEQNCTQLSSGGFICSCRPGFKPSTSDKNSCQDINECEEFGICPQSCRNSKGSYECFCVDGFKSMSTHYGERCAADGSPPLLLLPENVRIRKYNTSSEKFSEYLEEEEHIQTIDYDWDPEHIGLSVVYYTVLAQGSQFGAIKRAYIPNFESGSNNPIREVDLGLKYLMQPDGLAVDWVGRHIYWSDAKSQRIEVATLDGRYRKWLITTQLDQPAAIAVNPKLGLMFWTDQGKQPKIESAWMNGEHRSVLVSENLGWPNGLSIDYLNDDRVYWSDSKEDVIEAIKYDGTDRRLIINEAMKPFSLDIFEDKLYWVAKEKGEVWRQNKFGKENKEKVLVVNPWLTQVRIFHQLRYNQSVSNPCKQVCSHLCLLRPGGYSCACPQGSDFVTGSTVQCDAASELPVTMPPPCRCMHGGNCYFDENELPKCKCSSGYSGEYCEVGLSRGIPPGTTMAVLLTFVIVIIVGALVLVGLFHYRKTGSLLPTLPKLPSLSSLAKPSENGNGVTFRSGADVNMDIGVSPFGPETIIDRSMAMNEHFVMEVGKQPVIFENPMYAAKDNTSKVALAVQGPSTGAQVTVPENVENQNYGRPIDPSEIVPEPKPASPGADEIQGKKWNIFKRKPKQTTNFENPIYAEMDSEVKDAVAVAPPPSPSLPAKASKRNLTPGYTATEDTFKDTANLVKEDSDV", "experiment": "Direct binding of contrast solid-phased magnetic beads to megalin in brush border proteins, WB with anti-megalin antibody (Reference Example 4)", "parameters": "the cortex portions of Sprague-Dawley (SD) rats were ground to prepare a suspension; from tissue; host or cells: Sprague-Dawley rat kidney cortex (brush border proteins, method of Orlando et al.)", "settings": "0 mM and 10 mM iomeprol solid-phased beads; rat BBP 1 mg/mL; 4° C., 4 h; FIG. 20", "protocol": "Direct binding between an iodinated contrast medium and megalin was verified using contrast solid-phased magnetic beads.\nA starting powder of iodinated contrast medium was dissolved, just before use, in glycidylmethacrylate-coated magnetic beads (FG Beads®, particle size: 0.2 μm, produced by Tamagawa Seiki Co., Ltd.) to initiate chemical bonding between surface carboxyl groups and hydroxyl groups present in the contrast medium, whereby contrast solid-phased magnetic beads were prepared.\nThe contrast medium iomeprol was purchased from BOC Science.\nAt feed concentrations of 0 mM, 3 mM and 10 mM, iomeprol was brought to a solid phase by chemical bonding. The preparation of the iomeprol solid-phased beads was contracted to Tamagawa Seiki Co., Ltd.\nAccording to the method of Orlando, et al. (Proc. Natl. Acad. Sci. USA, 1992, vol. 89, p. 6698-6702), the cortex portions of Sprague-Dawley (SD) rats were ground to prepare a suspension, which was adjusted to a protein concentration of 1 mg/mL to obtain a BBP solution.\nFive milligrams each of the 0 mM and 10 mM contrast solid-phased magnetic beads were dispersed and washed in 200 μL of 100 mM KCL buffer (20 mM HEPES-NaOH (pH 7.9), 100 mM KCl, 1 mM MgCl2, 0.2 mM CaCl2), 0.2 mM EDTA, 10% (v/v) glycerol, 0.1% NP-40, 1 mM DTT, 0.2 mM PMSF). […]"}, "megalin [3]": {"tested_on": "megalin", "experiment": "EPMA mapping of iodine in kidney tissue of kidney-specific megalin complete knockout (NDRG1-Cre) and control mice (Reference Example 2)", "settings": "kidney-specific megalin complete knockout mice; 200 μL tail vein; kidneys extracted 3 h later; FIGS. 4-9", "excerpt": "(§1) EPMA is an electron microprobe (EMP) instrument that analyzes the constituent elements of a substance of interest by irradiating electron beams onto the substance and measuring the wavelengths and intensities of characteristic X-rays unique to the different elements, which are generated by the electron beams. […] The behaviors of contrast media per se can be verified by analyzing iodine content distribution.\n(§2) In order to use right kidneys for analysis, 3 mm-thick sections containing a kidney pedicle portion were prepared, embedded in OCT compound, freeze-fixed with liquid nitrogen, and stored at −80° C.\n(§3) Next, the stored sections were sliced at a thickness of 4 μm using a cryostat (CM1850, Leica Biosystems), and the obtained slices were attached onto carbon-coated grids and freeze-dried overnight.\n(§4) 378 μm^2 cortical areas in the prepared tissue slices were analyzed by EPMA (EPMA 1610, Shimadzu Corporation, Kyoto, Japan) to map iodine present in the structures of the contrast media."}, "megalin [4]": {"molecular_target": "megalin (Mus musculus, UniProt A2ARV4)", "experiment": "EPMA mapping of iodine in kidney tissue of kidney-specific megalin complete knockout (NDRG1-Cre) and control mice (Reference Example 2)", "settings": "control (uninduced) mice; 200 μL tail vein; kidneys extracted 3 h later; FIGS. 4-9", "excerpt": "as §1, §2, §3, §4"}}, "data": [{"smiles": "CN(C(=O)CO)c1c(I)c(C(=O)NCC(O)CO)c(I)c(C(=O)NCC(O)CO)c1I", "note": "(stereo not shown) [iomeprol]", "values": [{"measurement": "KIM-1 expression relative to megalin expression in renal proximal tubular epithelial cells", "setting": "megalin [1]", "result": "expressed in a specific manner in the renal proximal tubular epithelial cells with expression of megalin"}, {"measurement": "serum Cr compared to the control (NS) group", "setting": "C57BL/6J mice; 200 μL iomeprol tail vein 24 h after reperfusion, evaluated 48 h after administration, FIG. 1", "result": "significant (t-test) increase"}, {"measurement": "KIM-1 expression in kidney tissue (immunostaining)", "setting": "C57BL/6J mice; 200 μL iomeprol, 48 h after administration, FIG. 2", "result": "widely expressed mainly in the S1 and S2 segments of renal proximal tubular epithelial cells"}, {"measurement": "PAS staining of kidney tissue", "setting": "C57BL/6J mice; 200 μL iomeprol, 48 h after administration, FIG. 3", "result": "formation of vacuoles was observed"}, {"measurement": "megalin band in eluted samples after reaction of BBP with contrast medium-bound beads (WB)", "setting": "megalin [2]", "result": "not detected"}, {"measurement": "iodine contents detected in kidney slices by EPMA, NDRG1-Cre mice versus control mice", "setting": "megalin [3]", "result": "lower"}, {"measurement": "iodine detected in kidney slices by EPMA, control mice", "setting": "megalin [4]", "result": "High concentrations of iodine were detected"}]}]}
